Where “and” joins values, the source holds several entries; their conditions need not be identical. Equal entries are not always repeated. Where two headings read alike, the source gives them in different places.
Columns and labels:
[1] = target: T1, AChE (Homo sapiens, UniProt P22303); assay: biochemical; details: for SI(AChE/BChE): selectivity index = IC50 (AChE)/IC50 (BChE)
Description: (§1) Butyrylthiocholine iodide and acetylthiocholine were utilized as substrates in BChE and AChE assays, respectively, where DTNB was served as indicator. All compounds were dissolved in MeOH. […] Blank assays were performed by replacing the enzyme (20 μL) with buffer and their absorbances were recorded for correction of the spontaneous lysis of the indicator or inherent color of the inhibitor.
Selectivity index (SI) for acetyl and butyryl cholinesterases was calculated as follow:SI(AChE/BChE) = IC50 (AChE)/IC50 (BChE)SI(BChE/AChE) = […]

[2] = target: T2, BChE (Homo sapiens, UniProt P06276); assay: biochemical; details: for SI(BChE/AChE): selectivity index BChE/AChE
T2 sequence (P06276 29-602): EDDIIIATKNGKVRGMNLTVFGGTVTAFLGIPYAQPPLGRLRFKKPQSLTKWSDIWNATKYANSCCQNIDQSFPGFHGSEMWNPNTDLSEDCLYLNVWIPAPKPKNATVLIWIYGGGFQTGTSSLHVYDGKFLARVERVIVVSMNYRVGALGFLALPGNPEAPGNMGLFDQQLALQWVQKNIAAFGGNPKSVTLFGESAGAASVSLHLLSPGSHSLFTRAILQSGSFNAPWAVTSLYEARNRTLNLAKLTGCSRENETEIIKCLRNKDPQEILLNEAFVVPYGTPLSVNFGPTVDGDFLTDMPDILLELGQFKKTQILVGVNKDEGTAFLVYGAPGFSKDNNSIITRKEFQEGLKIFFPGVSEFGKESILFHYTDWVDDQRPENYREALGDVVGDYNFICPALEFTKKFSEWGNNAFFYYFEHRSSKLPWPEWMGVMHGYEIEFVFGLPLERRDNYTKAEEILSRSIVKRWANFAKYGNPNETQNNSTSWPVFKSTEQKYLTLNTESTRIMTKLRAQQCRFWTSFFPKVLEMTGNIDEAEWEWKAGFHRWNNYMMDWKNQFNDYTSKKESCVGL
Description: as §1, with “inhibitor. […]” for “inhibitor.”

[3] = system: RPE1 (human immortalized retinal pigment epithelial cell line); assay: Antiproliferative/cytotoxicity MTT assay on normal cell line; type: cell-based; details: RPE-1, 72 h incubation, tested at 100, 50, 25 and 12.5 μM, read-out: IC50 against RPE1
Text: Antiproliferative properties of the synthesized agents 8a–l were considered against RPE1 (human immortalized retinal pigment epithelial cell line) normal cell line utilizing the standard MTT (tetrazolium salt) technique.[37]
The synthesized agents 8a–l were screened against RPE1 (human immortalized retinal pigment epithelial cell line) normal cell line to investigate their cytotoxicity by the standard mitochondrial dependent reduction of yellow MTT [3-(4,5-dimethylthiazol-2-yl)-2,5-diphenyl-tetrazolium bromide] to purple formazan technique.[37] Cells were suspended in DMEM in addition to 1% antibiotic–antimycotic mixture (10 000 μg mL^−1 potassium penicillin, 10 000 μg mL^−1 streptomycin sulfate and 25 μg mL^−1 amphotericin B), 10% fetal bovine serum and 1% L-glutamine at 37 °C, under 5% CO2 and 95% humidity. Cells were seeded at concentration of 30 000 cells per well in fresh complete growth medium in 96-well tissue culture microtiter plates for 24 h. […] 0.5% DMSO was used as negative control. Triplicate wells were prepared for each individual dose. After 72 h of incubation, medium was aspirated, 40 μl MTT salt (2.5 mg mL^−1) were added to each well and incubated for further 4 h at 37 °C. To stop the reaction and dissolve the formed crystals, 150 μL of 10% sodium dodecyl sulfate (SDS) in deionized water were added to each well and incubated overnight at 37 °C.
Data were collected as mean values for experiments performed in triplicates for each individual dose which had been measured by MTT assay. […] The percentage of cell survival was calculated according to the following equation. [drawing 1]
Statistical calculations for determination of the mean and standard error values were determined by SPSS 16 software.

[4] = target: T1, AChE; assay: 2D-QSAR (BMLR, CODESSA-Pro) model, AChE inhibitors; details: observed minus estimated IC50
Text: (§2) The cholinesterase properties observed were undertaken by CODESSA-Pro software accessible for optimizing 2D-QSAR models.[39–41] This is useful for well understanding the bio-observations and identifying the parameters necessary for bio-potency. Three descriptor QSAR models were developed due to the AChE and BChE inhibitory properties of the synthesized dispiro-compounds 8a–l (ESI Tables S4–S9, Fig. S40 and S41, details of the QSAR descriptors are also mentioned in the ESI). ^† […]
(§3) Goodness of the QSAR models was supported by the comparative values of the correlation coefficient (R^2) with their cross validation of leave one-out (R^2cvOO) and leave many-out (R^2cvMO) [R^2 = 0.923, 0.979; R^2cvOO = 0.882, 0.936; R^2cvMO = 0.904, 0.956, for AChE and BChE models, respectively]. Standard deviation (s^2) and Fisher criteria (F) values of the models also support their goodness (s^2 = 0.026, 0.005; […]. Additionally, the correlations of the observed and predicted values “specially the high potent synthesized compounds” add good support for the attained models. […]
(§4) Molecular modeling studies
(§5) The synthesized dispiro[indoline-3,2'-pyrrolidine-3',3''-pyrrolidines] 8a‒l […]
(§6) 2D-QSAR modeling by CODESSA-Pro (comprehensive descriptors for structural and statistical analysis) software. Geometry of the compounds was initially optimized by AM1 technique using hyperChem 8.0 then, uploaded to CODESSA-Pro for final geometrical structure optimization by MOPAC.10‒12 CODESSA-Pro calculated 656 molecular descriptors (constitutional, topological, geometrical, charge-related, semi-empirical, thermodynamical, molecular-type, atomic-type and bond-type descriptors) for […]
(§7) the exported bio-active agents. Mathematical transformation of the experimental values […]
(§8) QSAR model. The best multi-linear regression (BMLR) technique was utilized which is a stepwise search for the best n-parameter regression equations (where n stands for the number of descriptors used), based on the highest R2 (squared correlation coefficient), R2cvOO (squared cross-validation “leave one-out, LOO” coefficient), R2cvMO (squared cross-validation “leave many-out up to 20% of the training set, LMO” coefficient), F (Fisher statistical significance criteria) values, and s2 (standard deviation). The QSAR up to 3-descriptor model describing the biological activity of the bio-active agents were generated (obeying the thumb rule of 4:1 which is the ratio between the data points and the number of QSAR descriptor).
(§9) Minimum (>0.1) bond order for atom C is an atomic type descriptor with the […]
(§10) why the higher descriptor value, the lower AChE inhibitory efficacy of the tested agent as […]
(§11) 2/SQRT(TMSA) (MOPAC PC) is a charge related descriptor with relatively high […]
(§12) . Compounds with high descriptor value predicted low AChE
(§13) 0.11715). HDCA2 (area weighed surface charge of hydrogen bonding donor atoms) can be calculated by equ. (1). 13
(§14) HDCA2 = D … .DtotH‒donor (1)
(§15) Where, standsSD for the solvent accessible surface area of H-bonding donor H atoms (selected by threshold charge), is the partialqD charge on H-bonding donor H atoms (selected by threshold charge) and is the totalStot solvent accessible molecular surface […]
(§16) Square root of surface area for atom C is also a charge related descriptor with […]
(§17) . For this reason, the higher descriptor value of […]

[5] = target: T2, BChE; assay: 2D-QSAR (BMLR, CODESSA-Pro) model, BChE inhibitors; details: observed minus estimated IC50
Text: as §2, §3, §4, §5, §6, §7, §8, §9, §10, §11, §12, §13, §14, §15, §16, §17
partial positively and negatively charged surface area can be calculated by equs. (2) and […]
PPSA3 = A … .. (2)A∈{δA>0}
PNSA3 = A … ..A∈{δA>0} (3)
Where, is the positively/negativelySA charged solvent accessible atomic surface area and qA is the atomic partial charge.
ZX Shadow/ZX rectangle is a geometrical descriptor with the highest coefficient […]
. The higher descriptor value of […]
compounds 8c and 8e, respectively). Relative shadow areas of a molecule can be determined by equ. (4). 13
Where, C is contour of the projection of the molecule on the plane defined by two principal axes of the molecule (k = XY, XZ or YZ plane), , , = X • ν –x or yρ –y or zS(k) […]
Maximum atomic state energy for atom O is an atomic type descriptor. […]

[6] = 10 min incubation at 25 °C, read at 405 nm, read-out: IC50 of AChE (μM) ± SD
[7] = log transformation of the observed IC50, read-out: Observed log(IC50, μM), AChE (converted)
[8] = 10 min incubation at 25 °C, read at 405 nm, read-out: IC50 of BChE (μM) ± SD
[9] = log transformation of the observed IC50, read-out: Observed log(IC50, μM), BChE (converted)

T1 sequence (P22303 32-614): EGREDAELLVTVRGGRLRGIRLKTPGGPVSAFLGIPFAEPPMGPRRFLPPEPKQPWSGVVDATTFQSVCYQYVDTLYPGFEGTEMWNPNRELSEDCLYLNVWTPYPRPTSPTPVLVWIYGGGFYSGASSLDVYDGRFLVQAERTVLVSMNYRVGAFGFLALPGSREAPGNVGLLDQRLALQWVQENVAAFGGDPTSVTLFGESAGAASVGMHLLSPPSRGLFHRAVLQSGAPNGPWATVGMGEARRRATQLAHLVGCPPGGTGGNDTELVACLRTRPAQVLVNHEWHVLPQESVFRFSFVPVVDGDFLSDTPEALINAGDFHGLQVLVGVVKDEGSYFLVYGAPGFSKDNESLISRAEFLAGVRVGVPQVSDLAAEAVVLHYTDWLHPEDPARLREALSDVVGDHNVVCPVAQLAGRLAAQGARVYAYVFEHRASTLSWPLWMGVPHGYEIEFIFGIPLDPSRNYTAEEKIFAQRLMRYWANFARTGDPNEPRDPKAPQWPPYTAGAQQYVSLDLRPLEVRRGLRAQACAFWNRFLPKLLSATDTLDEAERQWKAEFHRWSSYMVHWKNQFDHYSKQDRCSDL

Row | Compound | IC50 [1, 6] [µM] | IC50 [1, 7] [µM] | SI(AChE/BChE) [1] | IC50 [2, 8] | IC50 [2, 9] [µM] | SI(BChE/AChE) [2] | IC50 [3] [µM] | Error (difference between observed and estimated property values), AChE BMLR-QSAR model [4] [µM] | Error (difference between observed and estimated property values), BChE BMLR-QSAR model [5] [µM]
1 | CN1CC(c2ccc(Cl)cc2)C2(CC(=O)N(c3ccc(Cl)cc3)C2=O)C12C(=O)Nc1ccccc12 (stereo not drawn) [Compound 8j, 1′′,4′-Bis(4-chlorophenyl)-1′-methyldispiro[indoline-3,2′-pyrrolidine-3′,3′′-pyrrolidine]-2,2′′,5′′-trione] | 21 | 21 | 1.54 | 13.6 µM | 13.6 | 0.65 | > 100 | -0.80 | 1.51
2 | COc1ccc(C2CN(C)C3(C(=O)Nc4ccc(Cl)cc43)C23CC(=O)N(c2ccccc2)C3=O)cc1 (stereo not drawn) [Compound 8f, 5-Chloro-4′-(4-methoxyphenyl)-1′-methyl-1′′-phenyldispiro[indoline-3,2′-pyrrolidine-3′,3′′-pyrrolidine]-2,2′′,5′′-trione] | 12.3 | 12.3 | 0.61 | 20.1 ± 0.16 µM | 20.1 | 1.64 | > 100 | 1.32 | 1.88
3 | CN1CC(c2ccccc2)C2(CC(=O)N(c3ccccc3)C2=O)C12C(=O)Nc1ccc(Cl)cc12 (stereo not drawn) [Compound 8b, 5-Chloro-1′-methyl-1′′,4′-diphenyldispiro[indoline-3,2′-pyrrolidine-3′,3′′-pyrrolidine]-2,2′′,5′′-trione] | 13.6 ± 0.62 | 13.6 | 0.32 | 42.5 µM and 42.4 µM | 42.5 | 3.12 | > 100 | 0.13 | -6.64
4 | CN1CC(c2ccc(Cl)cc2)C2(CC(=O)N(c3ccc(Cl)cc3)C2=O)C12C(=O)Nc1ccc(Cl)cc12 (stereo not drawn) [Compound 8k, 5-Chloro-1′′,4′-bis(4-chlorophenyl)-1′-methyldispiro[indoline-3,2′-pyrrolidine-3′,3′′-pyrrolidine]-2,2′′,5′′-trione] | 13.9 | 13.9 | 1.36 | 10.2 ± 0.76 µM | 10.2 | 0.73 | > 100 | -0.82 | 1.09
5 | CN1CC(c2ccccc2)C2(CC(=O)N(c3ccc(Cl)cc3)C2=O)C12C(=O)Nc1ccc(Cl)cc12 (stereo not drawn) [Compound 8i, 5-Chloro-1′′-(4-chlorophenyl)-1′-methyl-4′-phenyldispiro[indoline-3,2′-pyrrolidine-3′,3′′-pyrrolidine]-2,2′′,5′′-trione] | 39.4 | 39.4 | 1.12 | 35.1 µM | 35.1 | 0.89 | > 100 | -3.69 | -3.48
6 | COc1ccc2c(c1)C1(C(=O)N2)N(C)CC(c2ccc(Cl)cc2)C12CC(=O)N(c1ccc(Cl)cc1)C2=O (stereo not drawn) [Compound 8l, 1′′,4′-Bis(4-chlorophenyl)-5-methoxy-1′-methyldispiro[indoline-3,2′-pyrrolidine-3′,3′′-pyrrolidine]-2,2′′,5′′-trione] | 22 | 22 | 0.62 | 35.54 ± 0.33 µM | 35.5 | 1.62 | > 100 | -7.93 | -0.71
7 | CN1CC(c2ccccc2)C2(CC(=O)N(c3ccccc3)C2=O)C12C(=O)Nc1ccccc12 (stereo not drawn) [Compound 8a, 1′-Methyl-1′′,4′-diphenyldispiro[indoline-3,2′-pyrrolidine-3′,3′′-pyrrolidine]-2,2′′,5′′-trione] | 117 | 117 | 1.43 | 81.8 µM | 81.8 | 0.70 | > 100 | -13.41 | 12.80
8 | COc1ccc2c(c1)C1(C(=O)N2)N(C)CC(c2ccccc2)C12CC(=O)N(c1ccccc1)C2=O (stereo not drawn) [Compound 8c, 5-Methoxy-1′-methyl-1′′,4′-diphenyldispiro[indoline-3,2′-pyrrolidine-3′,3′′-pyrrolidine]-2,2′′,5′′-trione] | 103 | 103 | 1.43 | 71.7 µM | 71.7 | 0.70 | > 100 | 18.50 | 7.44

— paper PMC9054546, “Synthesis and molecular modeling studies of cholinesterase inhibitor dispiro[indoline-3,2′-pyrrolidine-3′,3′′-pyrrolidines]” (RSC Advances, 2020)
